# Laboratory results published in ChEMBL document CHEMBL1201862, “PubChem BioAssay data set” (2004).
#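 All cell lines were grown in 96-well plates and treated with compound for 48 hours. At the GI50, growth is halved.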 Calls of active or inactive are those of the source. Cut-off read from the data, not from the text of the source: active = GI50 up to about 1.1 µM and inactive = higher.
# Experiments:
# Test in all cases: inhibition of tumour cell growth, NCI panel, 48 h
# [1] = test system: RXF 393
# [2] = test system: MDA-MB-231
# [3] = test system: OVCAR-5
# [4] = test system: SF-295
# [5] = test system: UACC-257
# [6] = test system: OVCAR-4
# [7] = test system: M14
# [8] = test system: ACHN
# [9] = test system: CAKI-1
# [10] = test system: MOLT-4
# [11] = test system: OVCAR-3
# [12] = test system: MDA-N
# [13] = test system: SK-MEL-2
# [14] = test system: Hs-578T
# [15] = test system: SF-539
# [16] = test system: U-251
# [17] = test system: OVCAR-8
# [18] = test system: UACC-62
# [19] = test system: SK-MEL-28
# [20] = test system: SN12C
# [21] = test system: Malme-3M
# [22] = test system: SW-620
# [23] = test system: HOP-62
# [24] = test system: NCI/ADR-RES
# [25] = test system: BT-549
# [26] = test system: HCT-116
# [27] = test system: NCI-H460
# [28] = test system: HL-60
# [29] = test system: TK-10
# [30] = test system: HCC 2998
# [31] = test system: HT-29
# [32] = test system: SNB-19
# [33] = test system: PC-3
# [34] = test system: HCT-15
# [35] = test system: SR
# [36] = test system: DU-145
# [37] = test system: LOX IMVI
# [38] = test system: EKVX
# [39] = test system: KM12
# [40] = test system: MCF7
# [41] = test system: RPMI-8226
# [42] = test system: UO-31
# [43] = test system: HOP-92
# [44] = test system: COLO 205
# [45] = test system: MDA-MB-435
# [46] = test system: NCI-H226
# [47] = test system: NCI-H23
# [48] = test system: A498
# [49] = test system: IGROV-1
# [50] = test system: SK-MEL-5
# [51] = test system: 786-0
# [52] = test system: A549
# [53] = test system: SF-268
# [54] = test system: NCI-H522
# [55] = test system: K562
# [56] = test system: SK-OV-3
# [57] = test system: CCRF-CEM
structure (smiles),measurement,setting,value
CCOC(=O)C(CCc1ncnc2c1ncn2Cc1ccccc1)(CCc1ncnc2c1ncn2Cc1ccccc1)C(=O)OCC,GI50,[1],32.4 µM (inactive)
same,GI50,[2],53.3 µM (inactive)
same,GI50,[3],> 100 µM (inactive)
same,GI50,[4],70.3 µM (inactive)
same,GI50,[5],31.7 µM (inactive)
same,GI50,[6],59.4 µM (inactive)
same,GI50,[7],54.6 µM (inactive)
same,GI50,[8],81.8 µM (inactive)
same,GI50,[9],51.8 µM (inactive)
same,GI50,[10],13.4 µM (inactive)
same,GI50,[11],90.8 µM (inactive)
same,GI50,[12],33 µM (inactive)
same,GI50,[13],44.1 µM (inactive)
same,GI50,[14],83.2 µM (inactive)
same,GI50,[15],30.3 µM (inactive)
same,GI50,[16],62.1 µM (inactive)
same,GI50,[17],64.1 µM (inactive)
same,GI50,[18],26.2 µM (inactive)
same,GI50,[19],98.9 µM (inactive)
same,GI50,[20],58.6 µM (inactive)
same,GI50,[21],61.7 µM (inactive)
same,GI50,[22],> 100 µM (inactive)
same,GI50,[23],> 100 µM (inactive)
same,GI50,[24],49.7 µM (inactive)
same,GI50,[25],76.6 µM (inactive)
same,GI50,[26],51.4 µM (inactive)
same,GI50,[27],40.4 µM (inactive)
same,GI50,[28],38.3 µM (inactive)
same,GI50,[29],82.6 µM (inactive)
same,GI50,[30],19.9 µM (inactive)
same,GI50,[31],42.9 µM (inactive)
same,GI50,[32],> 100 µM (inactive)
same,GI50,[33],27 µM (inactive)
same,GI50,[34],52.7 µM
same,GI50,[35],26.4 µM (inactive)
same,GI50,[36],89.3 µM (inactive)
same,GI50,[37],44.4 µM (inactive)
same,GI50,[38],63.7 µM (inactive)
same,GI50,[39],46.9 µM (inactive)
same,GI50,[40],37.9 µM (inactive)
same,GI50,[41],23.6 µM (inactive)
same,GI50,[42],2.64 µM (inactive)
same,GI50,[43],69.7 µM (inactive)
same,GI50,[44],24.2 µM (inactive)
same,GI50,[45],52.1 µM (inactive)
same,GI50,[46],27.7 µM (inactive)
same,GI50,[47],46.1 µM (inactive)
same,GI50,[48],47.4 µM (inactive)
same,GI50,[49],89.9 µM (inactive)
same,GI50,[50],48.5 µM (inactive)
same,GI50,[51],41.1 µM (inactive)
same,GI50,[52],39.2 µM (inactive)
same,GI50,[53],69.5 µM (inactive)
same,GI50,[54],33.9 µM (inactive)
same,GI50,[55],42.5 µM (inactive)
C=CCN1C(=O)/C(=C\c2cc(C(C)(C)C)c(O)c(C(C)(C)C)c2)NC1=S,GI50,[2],15.9 µM (inactive)
same,GI50,[3],31.3 µM (inactive)
same,GI50,[4],21.2 µM (inactive)
same,GI50,[5],15.6 µM (inactive)
same,GI50,[6],19.3 µM (inactive)
same,GI50,[7],26 µM (inactive)
same,GI50,[8],26.5 µM (inactive)
same,GI50,[9],22.3 µM (inactive)
same,GI50,[10],30.7 µM (inactive)
same,GI50,[11],12.1 µM (inactive)
same,GI50,[12],27.4 µM (inactive)
same,GI50,[13],14.1 µM (inactive)
same,GI50,[14],48.2 µM (inactive)
same,GI50,[15],39.5 µM (inactive)
same,GI50,[16],14.3 µM (inactive)
same,GI50,[17],33.9 µM (inactive)
same,GI50,[18],15.8 µM (inactive)
same,GI50,[19],30.6 µM (inactive)
same,GI50,[20],23.1 µM (inactive)
same,GI50,[21],7.19 µM (inactive)
same,GI50,[22],20.6 µM (inactive)
same,GI50,[23],20.9 µM (inactive)
same,GI50,[24],23.9 µM (inactive)
same,GI50,[25],33.9 µM (inactive)
same,GI50,[26],12.7 µM (inactive)
same,GI50,[27],15.3 µM (inactive)
same,GI50,[28],0.239 µM (active)
same,GI50,[29],25 µM (inactive)
same,GI50,[31],17.3 µM (inactive)
same,GI50,[56],34.1 µM (inactive)
same,GI50,[32],41.9 µM (inactive)
same,GI50,[33],14.2 µM (inactive)
same,GI50,[34],22.2 µM
same,GI50,[35],21.1 µM (inactive)
same,GI50,[36],21.2 µM (inactive)
same,GI50,[37],16.4 µM (inactive)
same,GI50,[38],19.9 µM (inactive)
same,GI50,[39],19.4 µM (inactive)
same,GI50,[40],20.7 µM (inactive)
same,GI50,[41],7.87 µM (inactive)
same,GI50,[42],28.8 µM (inactive)
same,GI50,[43],28.9 µM (inactive)
same,GI50,[44],16.9 µM (inactive)
same,GI50,[45],24 µM (inactive)
same,GI50,[46],29.3 µM (inactive)
same,GI50,[47],21.2 µM (inactive)
same,GI50,[48],25.2 µM (inactive)
same,GI50,[57],0.879 µM (active)
same,GI50,[49],36.6 µM (inactive)
same,GI50,[50],15.9 µM (inactive)
same,GI50,[51],20.8 µM (inactive)
same,GI50,[52],24.3 µM (inactive)
same,GI50,[53],36.1 µM (inactive)
same,GI50,[54],12.4 µM (inactive)
same,GI50,[55],19.9 µM (inactive)
